The numbers were not newly measured in PubChem BioAssay AID1259410 (Chemical Carcinogenesis Research Information System (CCRIS), 2018), which cites them from elsewhere.

The subject of the data set is rodent tumor promotion studies, tumor incidence. Nature of the data set: CCRIS tumor promotion studies. From the text:
The CCRIS database contains chemical records with carcinogenicity, mutagenicity, tumor promotion, and tumor inhibition test results. It was developed by the National Cancer Institute (NCI). Data are derived from studies cited in primary journals, current awareness tools, NCI reports, and other sources. Test results have been reviewed by experts in carcinogenesis and mutagenesis.
CCRIS provides historical information from the years 1985 - 2011. It is no longer updated.
This is an archive assay for CCRIS tumor promotion studies.

[1] abbreviates: Carcinogen: 7,12-DIMETHYLBENZ(A)ANTHRACENE, Doses [Carcinogen]: TOP, Route [Carcinogen]: DERMAL, Route [Promoter]: DERMAL, Species: MOUSE, Strain/Sex: FEMALE.

Molecules are shown by their SMILES.

For `CC(=O)O[C@@]12[C@H](OC(=O)/C=C(C)/C=C/C=C(C)/C=C/C3=C(C)CCCC3(C)C)[C@@H](C)[C@@]3(O)[C@@H](C=C(CO)C[C@]4(O)C(=O)C(C)=C[C@@H]34)[C@@H]1C2(C)C`, the outcome (Carcinogen: 7,12-DIMETHYLBENZ[A]ANTHRACENE, 57-97-6, Doses [Carcinogen]: 10 NMOL ONCE, Doses [Promoter]: 0, 2.5, 5 UG IN 0.2 ML ACETONE 2/WK FOR 21 WK BEGINNING 1 WK POST CARCINOGEN (STUDY DURATION: 21 WK), Doses [Promoter]: 0, 2.5, 5 UG IN 0.2 ML ACETONE 2/WK FOR 21 WK BEGINNING 1 WK POST CARCINOGEN (STUDY DURATION: 21 WK), Route [Carcinogen]: DERMAL, Route [Promoter]: DERMAL, Species: MOUSE, Strain/Sex: SENCAR/FEMALE) is reported as “skin: papilloma”.

On to `CC(C)C[C@H]1C(=O)N2CCC[C@H]2[C@]2(O)O[C@](NC(=O)[C@@H]3C=C4c5cccc6[nH]c(Br)c(c56)C[C@H]4N(C)C3)(C(C)C)C(=O)N12`, for which the outcome is “injection site: tumor” (Carcinogen: 3-METHYLCHOLANTHRENE, 56-49-5, Doses [Carcinogen]: 1.5 MG IN TRICAPRYLIN ONCE, Doses [Promoter]: 0, 3 MG/KG/D IN 50% ETHANOL FOR 16 CONSECUTIVE DAYS BEGINNING 2 D PRIOR TO CARCINOGEN DOSE AND AGAIN FOR 14 D BEGINNING, Route [Carcinogen]: SUBCUTANEOUS, Route [Promoter]: SUBCUTANEOUS, Species: RAT, Strain/Sex: SPRAGUE-DAWLEY/MALE) and “glandular stomach: adenocarcinoma” (Carcinogen: N-METHYL-N'-NITRO-N-NITROSOGUANIDINE, 70-25-7, Doses [Carcinogen]: 40 ML OF A 50 UG/ML DEIONIZED WATER SOLUTION 1/2 D FOR 25 WK (AVERAGE TOTAL DOSE 170 MG), Doses [Promoter]: 0, 1, 2, MG/KG IN 0.1 ML/KG OLIVE OIL 1/2 D FOR 25 WK ADMINISTERED POST CARCINOGEN (STUDY DURATION: 52 WK), Doses [Promoter]: 0, 1, 2, MG/KG IN 0.1 ML/KG OLIVE OIL 1/2 D FOR 25 WK ADMINISTERED POST CARCINOGEN (STUDY DURATION: 52 WK), Route [Carcinogen]: ORAL, Route [Promoter]: SUBCUTANEOUS, Species: RAT, Strain/Sex: WISTAR/MALE). Take `Oc1ccc(Cl)cc1Cl`: the outcome under setting [1] was “integumentary system (skin)”. For `O=c1cc[nH]c(=O)[nH]1`, the outcome by setting is: (Carcinogen: N-ETHYL-N-HYDROXYETHYLNITROSAMINE, 13147-25-6, Doses [Carcinogen]: 0.05% IN DRINKING WATER FOR 3 WK, Doses [Promoter]: 0, 3% IN DIET FOR 3 WK ADMINISTERED SIMULTANEOUSLY WITH CARCINOGEN (STUDY DURATION: 52 WK), Route [Carcinogen]: ORAL, Route [Promoter]: ORAL, Species: RAT, Strain/Sex: F344/FEMALE) “kidney: adenocarcinoma”; (Carcinogen: N-METHYL-N-NITROSOUREA, 684-93-5, Doses [Carcinogen]: 20 MG/KG 2/WK FOR 4 WK, Doses [Promoter]: 0, 3% IN DIET FOR 20 WK BEGINNING POST LAST CARCINOGEN DOSE (STUDY DURATION: 24 WK), Route [Carcinogen]: INTRAPERITONEAL, Route [Promoter]: ORAL, Species: RAT, Strain/Sex: F344/MALE) “urinary bladder: carcinoma”.

As for `CCCCCCCC/C=C/CCCCCCCC(=O)OCCOCC(OCCO)C1OCC(OCCO)C1OCCO` (configuration not stated), the outcome under setting [1] is recorded as “integumentary system (skin)”. For `CC(=O)OCC(COC(C)=O)OC(C)=O`, the outcome is, setting by setting: (Carcinogen: 7,12-Dimethylbenz(a)anthracene, 57-97-6, Doses [Carcinogen]: 100 ug in 100 ul acetone once at 6 wk of age, Doses [Promoter]: 0, 85 mg, daily for 5 d/wk beginning 1 wk after carcinogen administration for 35 wk, study duration 36 wk, Route [Carcinogen]: Dermal, Route [Promoter]: Dermal, Species: Mouse, Strain/Sex: ICR/Female) “skin: none”; (Carcinogen: 7,12-Dimethylbenz(a)anthracene, 57-97-6, Doses [Carcinogen]: 100 ug in 100 ul acetone once at 6 wk of age, Doses [Promoter]: 0, 85 mg, twice daily for 5 d/wk beginning 1 wk after carcinogen administration for 35 wk, study duration 36 wk, Route [Carcinogen]: Dermal, Route [Promoter]: Dermal, Species: Mouse, Strain/Sex: ICR/Female) “skin: none”. Take `CCCCCCCCCCCCCC1(CC(=O)OC2C(C)C3(O)C(C=C(CO)CC4(O)C(=O)C(C)=CC43)C3C(C)(C)C23OC(C)=O)OCC(C)(C)N1[O]` (configuration not stated): under “Carcinogen: 7,12-DIMETHYLBENZ[A]ANTHRACENE, 57-97-6, Doses [Carcinogen]: 100 NMOL ONCE, Doses [Promoter]: 0, 5 NMOL 2/WK FOR 36 WK BEGINNING 1 WK POST CARCINOGEN DOSE (STUDY DURATION: 25 WK), Route [Carcinogen]: DERMAL, Route [Promoter]: DERMAL, Species: MOUSE, Strain/Sex: NMRI/FEMALE”, the outcome is reported as “skin: tumor”.

As to `CC1=C[C@H]2[C@@]3(O)[C@H](C)[C@@H](OC(=O)c4ccccc4)[C@]4(OC(=O)c5ccccc5)[C@H]([C@@H]3C=C(CO)C[C@]2(O)C1=O)C4(C)C`, the outcome (Carcinogen: 7,12-DIMETHYLBENZ(A)ANTHRACENE, Doses [Carcinogen]: TOP, Route [Carcinogen]: DERMAL, Route [Promoter]: DERMAL, Species: MOUSE, Strain/Sex: MALE,FEMALE) is “integumentary system (skin)”. In the case of `C=CCS(=O)(=O)CC=C`, the outcome (Carcinogen: Vinyl carbamate, 15805-73-9, Doses [Carcinogen]: 60 mg/kg once 2 hr after inhibitor (Study duration: 25 wk), Doses [Promoter]: 50 mg/kg once at beginning of experiment (Study duration: 25 wk), Route [Carcinogen]: Intraperitoneal, Route [Promoter]: Oral, Species: Mouse, Strain/Sex: F1 (Big Blue x A/J) (43/?)/47/?)) is given as “lung: solid tumors (61 (42%), 135 (86.5%), p<0.01)”.

`Cc1nccc2c1[nH]c1ccccc12`: the outcome (Carcinogen: N-ETHYL-N-HYDROXYETHYLNITROSAMINE, 13147-25-6, Doses [Carcinogen]: 0.1% IN DRINKING WATER FOR 2 WK, Doses [Promoter]: 0, 1000 PPM IN DIET BEGINNING 1 WK POST CARCINOGEN TREATMENT AND CONTINUING FOR 23 WK (STUDY DURATION: 26 WK), Route [Carcinogen]: ORAL, Route [Promoter]: ORAL, Species: RAT, Strain/Sex: F344/MALE) was “kidney: adenoma”. Consider `CC(O)CN(C)N=O` (configuration not stated), for which the outcome reads like this: (Carcinogen: 1-NITRO-1,3-DIMETHYLUREA, 13256-32-1, Doses [Carcinogen]: 10 MG/ML IN ETHYL ACETATE/CORN OIL (1:1) 1/WK FOR 2 WK, Doses [Promoter]: 0, 20 MG/L IN DRINKING WATER 5D/WK FOR 40 WK BEGINNING 1/WK POST CARCINOGEN TREATMENT (STUDY DURATION: 43 WK), Route [Carcinogen]: GAVAGE, Route [Promoter]: ORAL, Species: RAT, Strain/Sex: F344/MALE) “kidney: nephroblastoma”; (Carcinogen: 1-NITROSO-1,3-DIETHYLUREA, 49540-32-1, Doses [Carcinogen]: 12 MG/ML IN ETHYL ACETATE/CORN OIL (1:1) 1/WK FOR 2 WK, Doses [Promoter]: 0, 20 MG/L IN DRINKING WATER 5 D/WK FOR 40 WK BEGINNING 1/WK POST CARCINOGEN TREATMENT (STUDY DURATION: 43 WK), Route [Carcinogen]: GAVAGE, Route [Promoter]: ORAL, Species: RAT, Strain/Sex: F344/MALE) “thyroid: adenocarcinoma; lung: adenocarcinoma; kidney: nephroblastoma”; (Carcinogen: NITROSOBIS(2-OXOPROPYL)AMINE, 60599-38-4, Doses [Carcinogen]: 12 MG/ML IN ETHYL ACETATE/CORN OIL (1:1) 2/WK FOR 2 WK, Doses [Promoter]: 0, 20 MG/L IN DRINKING WATER 5D/WK FOR 40 WK BEGINNING 1/WK POST CARCINOGEN TREATMENT (STUDY DURATION: 43 WK), Route [Carcinogen]: GAVAGE, Route [Promoter]: ORAL, Species: RAT, Strain/Sex: F344/MALE) “kidney: renal cell carcinoma”. With `CCCCCCCC/C=C\CCCCCCCC(=O)OC1CC2CCC1(C)C2(C)C` (configuration not stated), the outcome under setting [1] was “integumentary system (skin)”. As for `C[C@H](CCC(=O)O)[C@H]1CC[C@H]2[C@@H]3[C@H](O)C[C@@H]4C[C@H](O)CC[C@]4(C)[C@H]3CC[C@]12C`, the outcome runs as follows: (Carcinogen: 3-METHYLCHOLANTHRENE, 56-49-5, Doses [Carcinogen]: 3 MG IN BEESWAX PELLET, Doses [Promoter]: 0, 3 MG IN BEESWAX PELLET (STUDY DURATION: 5 MO), Route [Carcinogen]: IMPLANT, Route [Promoter]: IMPLANT, Species: HAMSTER) “gallbladder: tumor”; (Doses [Carcinogen]: IR, Route [Carcinogen]: RECTAL, Route [Promoter]: RECTAL, Species: RAT, Strain/Sex: FEMALE) “colon”. For the compound `CN(CCCC(=O)O)N=O`, the outcome reads like this: (Carcinogen: 1-NITROSO-1,3-DIMETHYLUREA, 13256-32-1, Doses [Carcinogen]: 10 MG/ML IN ETHYL ACETATE/CORN OIL (1:1) 1/WK FOR 2 WK, Doses [Promoter]: 0, 100 MG/L IN DRINKING WATER 5 D/WK FOR 40 WK BEGINNING 1/WK POST CARCINOGEN TREATMENT (STUDY DURATION: 43 WK), Route [Carcinogen]: GAVAGE, Route [Promoter]: ORAL, Species: RAT, Strain/Sex: F344/MALE) “urinary bladder: transitional cell carcinoma”; (Carcinogen: NITROSOBIS(2-OXOPROPYL)AMINE, 60599-38-4, Doses [Carcinogen]: 12 MG/ML IN ETHYLACETATE/CORN OIL (1:1) 2/WK FOR 2 WK, Doses [Promoter]: 0, 100 MG/L IN DRINKING WATER 5 D/WK FOR 40 WK BEGINNING 1 WK POST CARCINOGEN TREATMENT (STUDY DURATION: 43 WK), Route [Carcinogen]: GAVAGE, Route [Promoter]: ORAL, Species: RAT, Strain/Sex: F344/MALE) “colon: adenocarcinoma; urinary bladder: transitional cell carcinoma”. As to `CCCCCCCCCC(=O)OC[C@H](CO)OC(=O)CCCCCCCCC`, the outcome (Carcinogen: 7,12-DIMETHYLBENZ[A]ANTHRACENE, 57-97-6, Doses [Carcinogen]: 200 NMOL IN 200 µL OF ACETONE ONCE, Doses [Promoter]: 0, 2, 5 UMOL IN 20 µL ACETONE 2/D 5 D/WK FOR 20 WK BEGINNING 1 WK AFTER LAST CARCINOGEN DOSE (STUDY DURATION: 24 WK), Doses [Promoter]: 0, 2, 5 UMOL IN 20 µL ACETONE 2/D 5 D/WK FOR 20 WK BEGINNING 1 WK AFTER LAST CARCINOGEN DOSE (STUDY DURATION: 24 WK), Route [Carcinogen]: DERMAL, Route [Promoter]: DERMAL, Species: MOUSE, Strain/Sex: CD-1/FEMALE) was “skin: papilloma”.
